By AUC(0-t) is commonly meant exposure summed from dosing to a finite time, without extrapolation to infinity. Lower therefore signals less exposure. As usually defined, the IC50 is the concentration needed to halve the response being measured. For orientation: AUC means concentration integrated over time. A word on the half-life: it is how long it takes for the measured level to halve.

Read-outs that look alike come from different tables or passages of the source.

From patent US20240269298A1, “PHOSPHONYL DERIVATIVE, AND COMPOSITION AND PHARMACEUTICAL APPLICATION THEREOF” (XIZANG HAISCO PHARMACEUTICAL CO., LTD., priority 2021, published 2024) come the findings set out here.

A short description of series [1]: Pharmacokinetic test in mice. The series is classed as in vivo. The conditions noted are these: male, ICR, mouse, po, administration i.g. (10 mg/kg), plasma. On the procedure:
Test objective: In this experiment, a single dose of test compounds was administered to ICR mice intravenously and intragastrically, the concentrations of the test compounds in plasma of mice were measured, and the pharmacokinetic characteristics and bioavailability of the test compounds in mice were evaluated.
Experimental animals: male ICR mice, 20-25 g, purchased from BEIJING HFK BIOSCIENCE CO., LTD. with the laboratory animal production license number of SCXK (JING) 2019-0008; or purchased from CHENGDU DDOSSY EXPERIMENTAL ANIMALS CO., LTD. (SCXK (CHUAN) 2020-030); or purchased from HUNAN SJA LABORATORY ANIMAL CO., LTD. (SCXK (XIANG) 2019-0004).
Experimental method: on the day of the experiment, ICR mice were randomly grouped according to their body weights. The mice were fasted with water available for 12 to 14 hours one day before the administration, and were fed 4 hours after the administration.
Sampling: before and after the administration, blood was taken from the orbits of the mice under isoflurane anesthesia, and placed in an EDTAK2 centrifuge tube. Centrifugation was carried out at 5000 rpm at 4° C. for 10 min, and the plasma was collected.
Time points for plasma collection in G1&G2 groups: 0, 5 min, 15 min, 30 min, 1h, 2h, 4h, 6h, 8h, and 24 h; • time points for plasma collection in G3 group: 0, 5 min, 15 min, 30 min, 1 h, 2 h, 4 h, 6h, 8h, and 24 h; • before analysis and detection, all samples were stored at −80° C. The samples were analyzed quantitatively by LC-MS/MS.

In series [2] the test system is NCI-H1975 (EGFR-L858R-T790M) cells. Put plainly: Inhibitory activity on proliferation of NCI-H1975 (EGFR-L858R-T790M) cells (CTG, 72 h). The series is classed as cell-based. The settings on record: Homo sapiens. The essentials: (§1)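 IC50 values come from S-shaped dose-survival fits of CTG signal expressed as % of vehicle. Compound exposure lasted 72 h at 37 °C with 0.1% DMSO; seeding was 3000 A431 cells/well in DMEM+10% FBS and 1000 NCI-H1975 cells/well in RPMI1640+10% FBS.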

The next series has as its system A431 (EGFR-WT) cells. Put plainly: Inhibitory activity on proliferation of A431 (EGFR-WT) cells (CTG, 72 h). The series is classed as cell-based. The conditions noted are these: Homo sapiens, A-431. Summed up: as §1
[3] abbreviates: read-out: IC50 (value in brackets).

With `COc1cc(N2CCC(N3CCN(CC4CCN(c5ccc(C(=O)NC6CCC(=O)NC6=O)nc5)CC4)CC3)CC2)c(-c2cnn(C)c2)cc1Nc1ncc(Br)c(Nc2ccc(-c3ccccc3)cc2P(C)(C)=O)n1` (stereo not shown) [Compound 56, 5-(4-((4-(1-(4-((5-bromo-4-((3-(dimethylphosphoryl)-[1,1′-biphenyl]-4-yl)amino)pyrimidin-2-yl)amino)-5-methoxy-2-(1-methyl-1H-pyrazol-4-yl)phenyl)piperidin-4-yl)piperazin-1-yl)methyl)piperidin-1-yl)-N-(2,6-dioxopiperidin-3-yl)picolinamide], the AUC(0-t) in series [1] stood at 28.6 µg·h/mL. Moreover, the IC50 in series [2] (read-out: IC50 (class symbol)) was under 0.1 µM; in series [2] (setting [3]) it was 0.061 µM.
As to `COc1cc(N2CCC(CN3CCN(c4ccc5c(c4)C(=O)N(C4CCC(=O)NC4=O)C5=O)CC3)CC2)c(-c2cnn(C)c2)cc1Nc1ncc(Br)c(Nc2ccc(F)cc2P(C)(C)=O)n1` (stereo not shown) [Compound 141, 5-(4-((1-(4-((5-bromo-4-((2-(dimethylphosphoryl)-4-fluorophenyl)amino)pyrimidin-2-yl)amino)-5-methoxy-2-(1-methyl-1H-pyrazol-4-yl)phenyl)piperidin-4-yl)methyl)piperazin-1-yl)-2-(2,6-dioxopiperidin-3-yl)isoindoline-1,3-dione], the AUC in series [1] is 86.6 µg·h/mL. Moreover, the half-life in series [1] was 5.91 h. The results for the IC50 in series [2] (read-out: IC50 (class symbol)) and in series [2] (setting [3]) were under 0.1 µM and 0.027 µM, respectively.
Regarding `COc1cc(N2CCN(C3CN(c4ccc5c(c4)C(=O)N(C4CCC(=O)NC4=O)C5=O)C3)CC2)c(-c2cnn(C)c2)cc1Nc1ncc(Cl)c(Nc2ccc(C3CC3)cc2P(C)(C)=O)n1` (stereo not shown) [Compound 148, 5-(3-(4-(4-((5-chloro-4-((4-cyclopropyl-2-(dimethylphosphoryl)phenyl)amino)pyrimidin-2-yl)amino)-5-methoxy-2-(1-methyl-1H-pyrazol-4-yl)phenyl)piperazin-1-yl)azetidin-1-yl)-2-(2,6-dioxopiperidin-3-yl)isoindoline-1,3-dione], the IC50 was at least 10 µM in the series with A431 (EGFR-WT) cells, under 0.1 µM in series [2] (read-out: IC50 (class symbol)) and 0.079 µM in series [2] (setting [3]).
The matching figures for `COc1cc(N2CCC(C(=O)N3CCN(c4ccc5c(c4)C(=O)N(C4CCC(=O)NC4=O)C5=O)CC3)CC2)c(-c2cnn(C)c2)cc1Nc1ncc(Br)c(Nc2ccc(C3CC3)cc2P(C)(C)=O)n1` (stereo not shown) [Compound 145, 5-(4-(1-(4-((5-bromo-4-((4-cyclopropyl-2-(dimethylphosphoryl)phenyl)amino)pyrimidin-2-yl)amino)-5-methoxy-2-(1-methyl-1H-pyrazol-4-yl)phenyl)piperidine-4-carbonyl)piperazin-1-yl)-2-(2,6-dioxopiperidin-3-yl)isoindoline-1,3-dione]: at least 10 µM, under 0.1 µM and 0.069 µM.
The corresponding values for `COc1cc(N2CCC(CN3CCCC4(CCN(c5ccc6c(c5)C(=O)N(C5CCC(=O)NC5=O)C6=O)CC4)C3)CC2)c(-c2cnn(C)c2)cc1Nc1ncc(Cl)c(Nc2ccc3nccnc3c2P(C)(C)=O)n1` (stereo not shown) [Compound 1, 5-(2-((1-(4-((5-chloro-4-((5-(dimethylphosphoryl)quinoxalin-6-yl)amino)pyrimidin-2-yl)amino)-5-methoxy-2-(1-methyl-1H-pyrazol-4-yl)phenyl)piperidin-4-yl)methyl)-2,9-diazaspiro[5.5]undecan-9-yl)-2-(2,6-dioxopiperidin-3-yl)isoindoline-1,3-dione] are at least 10 µM, under 0.1 µM and 0.043 µM.
The matching figures for `COc1cc(N2CCN(CC3CCN(c4ccc5c(c4)C(=O)N(C4CCC(=O)NC4=O)C5=O)CC3)CC2)c(-c2cnn(C)c2)cc1Nc1ncc(Cl)c(Nc2ccc(C3CC3)cc2P(C)(C)=O)n1` (stereo not shown) [Compound 126, 5-(4-((4-(4-((5-chloro-4-((4-cyclopropyl-2-(dimethylphosphoryl)phenyl)amino)pyrimidin-2-yl)amino)-5-methoxy-2-(1-methyl-1H-pyrazol-4-yl)phenyl)piperazin-1-yl)methyl)piperidin-1-yl)-2-(2,6-dioxopiperidin-3-yl)isoindoline-1,3-dione]: at least 10 µM, under 0.1 µM and 0.039 µM.
Regarding `COc1cc(N2CCN(c3ccc4c(c3)C(=O)N(C3CCC(=O)NC3=O)C4=O)CC2)c(-c2cnn(C)c2)cc1Nc1ncc(Br)c(Nc2ccc(C3CC3)cc2P(C)(C)=O)n1` (stereo not shown) [Compound 166, 5-(4-(4-((5-bromo-4-((4-cyclopropyl-2-(dimethylphosphoryl)phenyl)amino)pyrimidin-2-yl)amino)-5-methoxy-2-(1-methyl-1H-pyrazol-4-yl)phenyl)piperazin-1-yl)-2-(2,6-dioxopiperidin-3-yl)isoindoline-1,3-dione], the IC50 with A431 (EGFR-WT) cells is at least 10 µM; in series [2] (read-out: IC50 (class symbol)), 0.1 to 0.5 µM; in series [2] (setting [3]), 0.115 µM.
The corresponding values for `CCn1cc(-c2cc(Nc3ncc(Cl)c(Nc4ccc(-c5ccccc5)cc4P(C)(C)=O)n3)c(OC)cc2N2CCC(CN3CCN(c4ccc5c(c4)C(=O)N(C4CCC(=O)NC4=O)C5=O)CC3)CC2)cn1` (stereo not shown) [Compound 110, 5-(4-((1-(4-((5-chloro-4-((3-(dimethylphosphoryl)-[1,1′-biphenyl]-4-yl)amino)pyrimidin-2-yl)amino)-2-(1-ethyl-1H-pyrazol-4-yl)-5-methoxyphenyl)piperidin-4-yl)methyl)piperazin-1-yl)-2-(2,6-dioxopiperidin-3-yl)isoindoline-1,3-dione] are at least 10 µM, 0.1 to 0.5 µM and 0.232 µM.
The matching figures for `COc1cc(N2CCC(C3CCN(CC4CCN(c5ccc6c(c5)C(=O)N(C5CCC(=O)NC5=O)C6=O)CC4)CC3)CC2)c(-c2cnn(C)c2)cc1Nc1ncc(Cl)c(Nc2ccc(-c3ccccc3)cc2P(C)(C)=O)n1` (stereo not shown) [Compound 41, 5-(4-((1′-(4-((5-chloro-4-((3-(dimethylphosphoryl)-[1,1′-biphenyl]-4-yl)amino)pyrimidin-2-yl)amino)-5-methoxy-2-(1-methyl-1H-pyrazol-4-yl)phenyl)-[4,4′-bipiperidin]-1-yl)methyl)piperidin-1-yl)-2-(2,6-dioxopiperidin-3-yl)isoindoline-1,3-dione]: at least 10 µM, 0.1 to 0.5 µM and 0.353 µM.
The matching figures for `COc1cc(N2CCC(N3CCN(CC4CCN(c5ccc6c(c5)C(=O)N(C5CCC(=O)NC5=O)C6=O)C4)CC3)CC2)c(C2CC2)cc1Nc1ncc(Br)c(Nc2ccc3nccnc3c2P(C)(C)=O)n1` (stereo not shown) [Compound 35, 5-(3-((4-(1-(4-((5-bromo-4-((5-(dimethylphosphoryl)quinoxalin-6-yl)amino)pyrimidin-2-yl)amino)-2-cyclopropyl-5-methoxyphenyl)piperidin-4-yl)piperazin-1-yl)methyl)pyrrolidin-1-yl)-2-(2,6-dioxopiperidin-3-yl)isoindoline-1,3-dione]: at least 10 µM, 0.1 to 0.5 µM and 0.114 µM.
In the case of `COc1cc(N2CCC(CN3CCN(c4cc5c(cc4F)C(=O)N(C4CCC(=O)NC4=O)C5=O)CC3)CC2)c(-c2cnn(C)c2)cc1Nc1ncc(Cl)c(Nc2ccc(C3CC3)cc2P(C)(C)=O)n1` (stereo not shown) [Compound 160, 5-(4-((1-(4-((5-chloro-4-((4-cyclopropyl-2-(dimethylphosphoryl)phenyl)amino)pyrimidin-2-yl)amino)-5-methoxy-2-(1-methyl-1H-pyrazol-4-yl)phenyl)piperidin-4-yl)methyl)piperazin-1-yl)-2-(2,6-dioxopiperidin-3-yl)-6-fluoroisoindoline-1,3-dione], the figures for the IC50 (with A431 (EGFR-WT) cells; in series [2] (read-out: IC50 (class symbol)); in series [2] (setting [3])) were at least 10 µM, 0.1 to 0.5 µM and 0.152 µM, respectively.
The matching figures for `COc1cc(N2CCC(N3CCC(CN4CCN(c5ccc6c(c5)C(=O)N(C5CCC(=O)NC5=O)C6=O)CC4)CC3)CC2)c(C2CC2)cc1Nc1ncc(Br)c(Nc2ccc3nccnc3c2P(C)(C)=O)n1` (stereo not shown) [Compound 24, 5-(4-((1′-(4-((5-bromo-4-((5-(dimethylphosphoryl)quinoxalin-6-yl)amino)pyrimidin-2-yl)amino)-2-cyclopropyl-5-methoxyphenyl)-[1,4′-bipiperidin]-4-yl)methyl)piperazin-1-yl)-2-(2,6-dioxopiperidin-3-yl)isoindoline-1,3-dione]: at least 10 µM, 0.1 to 0.5 µM and 0.163 µM.
